The numbers were not newly measured in patent US12410178B2, “Small cationic ortho-5,15-di-heteroaryl-porphyrin derivatives and their applications in photoinactivation of microorganisms” (UNIVERSIDADE DE COIMBRA, priority 2019, dated 2025), which cites them from elsewhere.

Each structure is given as a SMILES string.

One data set concerns human HeLa cells. As to conditions: phototoxicity in vitro; read-out: concentration at which 50% of human HeLa cells are killed; cited from earlier work.
In the next data set the test system is flies. As to conditions: in vivo; cited from earlier work.

`CCn1cc[n+](CC)c1C1=c2ccc3[n]2[Zn@]24[n]5c(ccc5C(c5ccccc5)=C5C=CC(=[N+]52)C=3)C=C2C=CC1=[N+]24` [Formula (III), zinc(II) phenylporphinate]: the IC50 in the data set on human HeLa cells was 1200 nM.

Consider `C[n+]1ccc(-c2c3nc(c(-c4cc[n+](C)cc4)c4ccc([nH]4)c(-c4ccccc4)c4nc(c(-c5ccccc5)c5ccc2[nH]5)C=C4)C=C3)cc1` [Formula (IV), meso-(di-cis[4-N-methyl-pyridyl]cis-diphenyl-porphyrin)], for which the phototoxicity towards flies result with flies is listed as “phototoxic towards flies”.
